PubChem BioAssay AID1259407 (Chemical Carcinogenesis Research Information System (CCRIS), 2018)
Calls of active or inactive are those of the source. How the calls were made is not given here.

System: CCRIS mutagenicity, Ames/micronucleus/aberration tests
Test: CCRIS mutagenicity studies
[1] = Test System: AMES SALMONELLA TYPHIMURIUM, Strain/Indicator: TA100, Metabolic Activation: NONE, Method: STANDARD PLATE
[2] = Test System: AMES SALMONELLA TYPHIMURIUM, Strain/Indicator: TA98, Metabolic Activation: NONE, Method: STANDARD PLATE
[3] = Test System: AMES SALMONELLA TYPHIMURIUM, Strain/Indicator: TA98, Metabolic Activation: RAT, LIVER, S-9, AROCLOR 1254, Method: STANDARD PLATE
[4] = Test System: AMES SALMONELLA TYPHIMURIUM, Strain/Indicator: TA100, Metabolic Activation: RAT, LIVER, S-9, AROCLOR 1254, Method: STANDARD PLATE
[5] = Test System: AMES SALMONELLA TYPHIMURIUM, Strain/Indicator: TA102, Metabolic Activation: NONE, Method: STANDARD PLATE

## CCCCOc1c(C(=O)NOC(C)=O)ccc2ccccc12
[1]
  mutagenic call: active; positive
Test System: AMES SALMONELLA TYPHIMURIUM, Strain/Indicator: TA100, Metabolic Activation: RAT, S-9, AROCLOR, Method: STANDARD PLATE
  mutagenic call: active; positive

## Nc1nc(Cl)nc2c1ncn2[C@H]1C[C@H](O)[C@@H](CO)O1
End Point: In vivo chromosomal aberrations, Test System: Bone marrow cells, Species: Mouse, Strain/Sex: Balb/C/Male and female, Route: Intraperitoneal
  mutagenic call: inactive; negative

## CCC(=O)C(=O)CC
[1]
  mutagenic call: active; positive

## O=C/C(Br)=C(/Br)C(=O)O
End Point: In vitro micronucleus, Test System: Human lymphocytes, Metabolic Activation: None
  mutagenic call: inactive; negative
[1]
  mutagenic call: active; positive

## Cc1ccc(N)cc1C
Test System: AMES SALMONELLA TYPHIMURIUM, Strain/Indicator: TA97, Metabolic Activation: HAMSTER, LIVER, S-9, AROCLOR 1254 (10%), Method: PREINCUBATION
  mutagenic call: inactive; negative
Test System: AMES SALMONELLA TYPHIMURIUM, Strain/Indicator: TA97, Metabolic Activation: NONE, Method: PREINCUBATION
  mutagenic call: inactive; negative
Test System: AMES SALMONELLA TYPHIMURIUM, Strain/Indicator: TA97, Metabolic Activation: RAT, LIVER, S-9, AROCLOR 1254 (10%), Method: PREINCUBATION
  mutagenic call: inactive; negative
Test System: AMES SALMONELLA TYPHIMURIUM, Strain/Indicator: TA98, Metabolic Activation: HAMSTER, LIVER, S-9, AROCLOR 1254 (10%), Method: PREINCUBATION
  mutagenic call: inactive; negative
Test System: AMES SALMONELLA TYPHIMURIUM, Strain/Indicator: TA98, Metabolic Activation: NONE, Method: PREINCUBATION
  mutagenic call: inactive; negative
Test System: AMES SALMONELLA TYPHIMURIUM, Strain/Indicator: TA98, Metabolic Activation: RAT LIVER S-9, PHENOBARBITAL AND BETA-NAPHTHOFLAVONE, Method: PREINCUBATION
  mutagenic call: inactive; negative
Test System: AMES SALMONELLA TYPHIMURIUM, Strain/Indicator: TA98, Metabolic Activation: RAT, LIVER, S-9, AROCLOR 1254 (10%), Method: PREINCUBATION
  mutagenic call: inactive; negative
Test System: AMES SALMONELLA TYPHIMURIUM, Strain/Indicator: TA100, Metabolic Activation: HAMSTER, LIVER, S-9, AROCLOR 1254 (10%), Method: PREINCUBATION
  mutagenic call: active; positive
Test System: AMES SALMONELLA TYPHIMURIUM, Strain/Indicator: TA100, Metabolic Activation: NONE, Method: PREINCUBATION
  mutagenic call: inactive; negative
Test System: AMES SALMONELLA TYPHIMURIUM, Strain/Indicator: TA100, Metabolic Activation: RAT LIVER S-9, PHENOBARBITAL AND BETA-NAPHTHOFLAVONE, Method: PREINCUBATION
  mutagenic call: inactive; negative
Test System: AMES SALMONELLA TYPHIMURIUM, Strain/Indicator: TA100, Metabolic Activation: RAT, LIVER, S-9, AROCLOR 1254 (10%), Method: PREINCUBATION
  mutagenic call: inactive; negative
Test System: AMES SALMONELLA TYPHIMURIUM, Strain/Indicator: TA1535, Metabolic Activation: HAMSTER, LIVER, S-9, AROCLOR 1254 (10%), Method: PREINCUBATION
  mutagenic call: inactive; negative
Test System: AMES SALMONELLA TYPHIMURIUM, Strain/Indicator: TA1535, Metabolic Activation: NONE, Method: PREINCUBATION
  mutagenic call: inactive; negative
Test System: AMES SALMONELLA TYPHIMURIUM, Strain/Indicator: TA1535, Metabolic Activation: RAT LIVER S-9, PHENOBARBITAL AND BETA-NAPHTHOFLAVONE, Method: PREINCUBATION
  mutagenic call: inactive; negative
Test System: AMES SALMONELLA TYPHIMURIUM, Strain/Indicator: TA1535, Metabolic Activation: RAT, LIVER, S-9, AROCLOR 1254 (10%), Method: PREINCUBATION
  mutagenic call: inactive; negative
Test System: AMES SALMONELLA TYPHIMURIUM, Strain/Indicator: TA1537, Metabolic Activation: HAMSTER, LIVER, S-9, AROCLOR 1254 (10%), Method: PREINCUBATION
  mutagenic call: inactive; negative
Test System: AMES SALMONELLA TYPHIMURIUM, Strain/Indicator: TA1537, Metabolic Activation: NONE, Method: PREINCUBATION
  mutagenic call: inactive; negative
Test System: AMES SALMONELLA TYPHIMURIUM, Strain/Indicator: TA1537, Metabolic Activation: RAT LIVER S-9, PHENOBARBITAL AND BETA-NAPHTHOFLAVONE, Method: PREINCUBATION
  mutagenic call: inactive; negative
Test System: AMES SALMONELLA TYPHIMURIUM, Strain/Indicator: TA1538, Metabolic Activation: NONE, Method: PREINCUBATION
  mutagenic call: inactive; negative
Test System: AMES SALMONELLA TYPHIMURIUM, Strain/Indicator: TA1538, Metabolic Activation: RAT LIVER S-9, PHENOBARBITAL AND BETA-NAPHTHOFLAVONE, Method: PREINCUBATION
  mutagenic call: inactive; negative
Test System: E.COLI, Strain/Indicator: WP2UVRA, Metabolic Activation: NONE, Method: PREINCUBATION
  mutagenic call: inactive; negative
Test System: E.COLI, Strain/Indicator: WP2UVRA, Metabolic Activation: RAT LIVER S-9, PHENOBARBITAL AND BETA-NAPHTHOFLAVONE, Method: PREINCUBATION
  mutagenic call: inactive; negative

## CC[n+]1c2ccccc2nc2ccccc21
[2]
  mutagenic call: inactive; negative
[3]
  mutagenic call: active; positive
[1]
  mutagenic call: inactive; negative
[4]
  mutagenic call: inactive; negative
[5]
  mutagenic call: inactive; negative
Test System: AMES SALMONELLA TYPHIMURIUM, Strain/Indicator: TA1537, Metabolic Activation: RAT, LIVER, S-9, AROCLOR 1254, Method: STANDARD PLATE
  mutagenic call: active; positive
Test System: AMES SALMONELLA TYPHIMURIUM, Strain/Indicator: TA1538, Metabolic Activation: NONE, Method: STANDARD PLATE
  mutagenic call: inactive; negative
Test System: AMES SALMONELLA TYPHIMURIUM, Strain/Indicator: TA1538, Metabolic Activation: RAT, LIVER, S-9, AROCLOR 1254, Method: STANDARD PLATE
  mutagenic call: inactive; negative
Test System: AMES SALMONELLA TYPHIMURIUM, Strain/Indicator: TA2638, Metabolic Activation: NONE, Method: STANDARD PLATE
  mutagenic call: inactive; negative
Test System: E. COLI, Strain/Indicator: WP2 (PKM101), Metabolic Activation: NONE, Method: STANDARD PLATE
  mutagenic call: inactive; negative
Test System: E. COLI, Strain/Indicator: WP2 UVRA (PKM101), Metabolic Activation: NONE, Method: STANDARD PLATE
  mutagenic call: active; positive

## O=C(CBr)c1oc([N+](=O)[O-])c(Cl)c1Cl
[2]
  mutagenic call: active; positive
Test System: AMES SALMONELLA TYPHIMURIUM, Strain/Indicator: TA100 (NR), Metabolic Activation: NONE, Method: STANDARD PLATE
  mutagenic call: active; positive
[1]
  mutagenic call: active; positive
Test System: AMES SALMONELLA TYPHIMURIUM, Strain/Indicator: TA100, Metabolic Activation: NONE, Method: STANDARD PLATE (ANAEROBIC INCUBATION)
  mutagenic call: active; positive

## CN(C)CCc1cc(O)ccc1CNc1ccccn1
Test System: AMES SALMONELLA TYPHIMURIUM, Strain/Indicator: TA97, Metabolic Activation: NONE, Method: STANDARD PLATE
  mutagenic call: inactive; negative
Test System: AMES SALMONELLA TYPHIMURIUM, Strain/Indicator: TA97, Metabolic Activation: RAT, LIVER, S-9, AROCLOR 1254, Method: STANDARD PLATE
  mutagenic call: inactive; negative
[2]
  mutagenic call: inactive; negative
[3]
  mutagenic call: inactive; negative
[1]
  mutagenic call: inactive; negative
[4]
  mutagenic call: inactive; negative
[5]
  mutagenic call: inactive; negative
Test System: AMES SALMONELLA TYPHIMURIUM, Strain/Indicator: TA102, Metabolic Activation: RAT, LIVER, S-9, AROCLOR 1254, Method: STANDARD PLATE
  mutagenic call: inactive; negative
